The source of these data is US20230183239A1, “ECTONUCLEOTIDE PYROPHOSPHATASE-PHOSPHODIESTERASE 1 (ENPP-1) INHIBITORS AND USES THEREOF” (AbbVie Inc., priority 2017, published 2023).

SMILES strings stand for the structures. Read-outs that look alike come from different tables or passages of the source. Some results are limits rather than exact numbers.

Holding throughout (type): biochemical
The target in assay [1] is T1, ENPP1 (Homo sapiens, UniProt P22413).
T1 sequence (P22413 1-925): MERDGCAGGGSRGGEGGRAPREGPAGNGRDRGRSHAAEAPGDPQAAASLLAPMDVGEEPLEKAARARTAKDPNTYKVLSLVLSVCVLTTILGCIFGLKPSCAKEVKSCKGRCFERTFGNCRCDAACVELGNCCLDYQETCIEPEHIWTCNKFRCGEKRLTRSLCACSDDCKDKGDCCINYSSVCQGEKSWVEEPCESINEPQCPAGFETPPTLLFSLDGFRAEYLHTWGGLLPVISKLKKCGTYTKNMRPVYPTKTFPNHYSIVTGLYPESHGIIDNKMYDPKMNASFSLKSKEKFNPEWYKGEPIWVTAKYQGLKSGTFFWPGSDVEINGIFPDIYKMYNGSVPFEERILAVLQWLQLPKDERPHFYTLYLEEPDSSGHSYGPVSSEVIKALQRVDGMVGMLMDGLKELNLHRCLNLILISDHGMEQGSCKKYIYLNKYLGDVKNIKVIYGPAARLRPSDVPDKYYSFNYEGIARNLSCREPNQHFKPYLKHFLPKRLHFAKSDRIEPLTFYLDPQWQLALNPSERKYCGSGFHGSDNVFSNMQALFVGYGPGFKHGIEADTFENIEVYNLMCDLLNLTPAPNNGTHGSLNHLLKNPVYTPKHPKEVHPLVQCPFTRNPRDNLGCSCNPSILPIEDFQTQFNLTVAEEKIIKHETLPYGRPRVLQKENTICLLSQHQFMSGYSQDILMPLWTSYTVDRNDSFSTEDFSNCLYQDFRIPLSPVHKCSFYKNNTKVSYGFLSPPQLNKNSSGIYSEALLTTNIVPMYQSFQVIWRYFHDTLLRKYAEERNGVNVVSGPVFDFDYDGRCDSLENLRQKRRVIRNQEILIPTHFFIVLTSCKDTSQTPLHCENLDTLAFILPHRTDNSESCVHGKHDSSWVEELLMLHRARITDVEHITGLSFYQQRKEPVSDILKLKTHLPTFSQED
Kind of assay: ENPP1 enzyme assay with cGAMP substrate (AMP-Glo). Also noted: purchased R&D Systems. Particulars: for inhibition at 1 µM: read-out: cGAMP: % Inhibition at 1 µM. From the text: Example B1: ENPP1 Enzyme Assay With cGAMP Substrate
Ectonucleotide pyrophosphatase/phosphodiesterase 1 (ENPP-1) is a transmembrane glycoprotein that hydrolyzes nucleotides and nucleotide derivatives with the formation of nucleoside-5’-monophosphates. […] The 5’-AMP formed from the reaction is detected using the AMP-Glo® Kit (Promega). The assay kit contains two reagents. The first reagent terminates the enzymatic reaction, removes ATP (using adenylyl cyclase), and converts 5’-AMP produced into ADP (using polyphosphate: AMP phosphotransferase). The second reagent converts ADP to ATP (using adenylate kinase) and generates light from ATP using the luciferin/luciferase reaction.
Different concentrations of ENPP1 inhibitors are pre-incubated with 5 ng/well of human ENPP-1 enzyme (R&D Systems) for 15 minutes at 37° C. The reaction is initiated by adding 20 µM 2’3’-cGAMP and incubating for 30 minutes at 37° C. The final assay reaction mixture contains a buffer of 50 mM Tris pH 8.0, 250 mM NaCl, 0.5 mM CaCl2, 1 µM ZnCl2 and 1% DMSO. At the end of the incubation, the reaction is stopped by adding 12 µl of AMP-Glo reagent-1 and mixing the reaction uniformly for 5 minutes, followed by incubation at room temperature for one hour. Then 25 µl of AMP Glo reagent-2 is added to the reaction, mixed uniformly with a pipette, and incubated at room temperature for one hour to convert the ADP formed from reagent-1 to ATP and light. The generated light is measured in a Perkin Elmer Victor® instrument.
The IC50 values for percent inhibition versus compound concentration are determined by fitting the inhibition curves using a four-parameter variable slope model in GraphPad Prism® software. Ki values are derived from the IC50 values using the Cheng-Prusoff equation: […]

Assay [2] concerns the target T1, ENPP1. Description: Indirect quantitation of 2',3'-cGAMP hydrolysis (AMP-Glo Assay kit).
Assay [3] addresses T1, ENPP1. Kind of assay: ENPP1 enzyme assay with AMP-pNP substrate (hydrolysis of ATP analog). Put shortly: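 Human recombinant ENPP1 (60 ng/well) with 300 µM AMP-pNP in 50 mM Tris-HCl pH 8.5, 250 mM NaCl, 0.5 mM CaCl2, 1 µM ZnCl2, 0.1% DMSO, 20 min at 37 °C.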
In assay [4] the target is T1, ENPP1. Description: Substrate selectivity ratio, inhibition of cGAMP hydrolysis versus ATP hydrolysis. To be noted: ratio Ki AMP-pNP / Ki cGAMP. As to the method: The selectivity ratios for inhibition of cGAMP hydrolysis versus ATP hydrolysis were then calculated as follows: […]
Where [5] appears, read: cGAMP substrate, Ki from IC50 by Cheng-Prusoff, read-out: ENPP1 Inhibition -cGAMP: Ki.
[6] abbreviates: AMP-pNP substrate (ATP analog), Ki from IC50 by Cheng-Prusoff, read-out: ENPP1 Inhibition _AMP-pNP: Ki.

Consider `NS(=O)(=O)NCCC1CCN(c2ncnc3c2cnn3-c2ccccc2)CC1` [Example 26, N-(2-(1-(1-phenyl-1H-pyrazolo[3,4-d]pyrimidin-4-yl)piperidin-4-yl)ethyl)sulfamide], for which the inhibition (commonly the share of the control response that was lost under treatment) at 1 µM on ENPP1 [1] is below 25%. Also, on ENPP1 [2] (setting [5]), the inhibition constant (Ki) (as a rule, the dissociation constant of the complex between target and ligand, obtained from inhibition or displacement) was above 1000 nM.
As for `COc1cc(C(=O)N2CCC(CCNS(N)(=O)=O)CC2)c(N(C)C)cc1OC` [Example 45, N-(2-(1-(2-(dimethylamino)-4,5-dimethoxybenzoyl)piperidin-4-yl)ethyl)sulfamide], the inhibition at 1 µM at ENPP1 [1] (1 µM compound, cGAMP substrate) is below 25%. Moreover, at ENPP1 [2] (setting [5]), the Ki was above 1000 nM.
Turning to `NS(=O)(=O)NCCC1CCN(c2ccnc(Nc3ccncc3)n2)CC1` [Example 13, N-(2-(1-(2-(pyridin-4-ylamino)pyrimidin-4-yl)piperidin-4-yl)ethyl)sulfamide], at ENPP1 [1], the inhibition at 1 µM lay within 25 to 50%. In addition, the Ki at ENPP1 [2] (setting [5]) is above 1000 nM.
As for `COc1cc(N)c(C(=O)N2CCC(CCNS(N)(=O)=O)CC2)cc1OC` [Example 46, N-(2-(1-(2-amino-4,5-dimethoxybenzoyl)piperidin-4-yl)ethyl)sulfamide], at ENPP1 [1] (1 µM compound, cGAMP substrate), the inhibition at 1 µM was below 25%. Also, on ENPP1 [2] (setting [5]), the Ki is above 1000 nM.
The corresponding values for `COc1cccc(C(=O)N2CCC(CCNS(N)(=O)=O)CC2)c1` [Example 48, N-(2-(1-(3-methoxybenzoyl)piperidin-4-yl)ethyl)sulfamide] are 25 to 50% and above 1000 nM.
Regarding `COc1cc2ncnc(N3CCN(CCNS(N)(=O)=O)CC3)c2cc1OC` [Example 40, N-(2-(4-(6,7-dimethoxyquinazolin-4-yl)piperazin-1-yl)ethyl)sulfamide], the inhibition constant Ki at ENPP1 [3] is 100 to 1000 nM; at ENPP1 [2], below 100 nM. The “Substrate Selectivity: Ki_AMP-pNP/Ki_cGAMP” value (from here on “Substrate Selectivity”) on ENPP1 [4] came out at 24.1. On ENPP1 [1], the inhibition at 1 µM is above 75%.
With `NS(=O)(=O)NCCC1CCN(c2ccnc(Nc3ccccn3)n2)CC1` [Example 11, N-(2-(1-(2-(pyridin-2-ylamino)pyrimidin-4-yl)piperidin-4-yl)ethyl)sulfamide], the Ki at ENPP1 [3] and at ENPP1 [2] was above 1000 nM in each case. Moreover, at ENPP1 [1], the inhibition at 1 µM is below 25%.
For `COc1ccc(C(=O)N2CCC(CCNS(N)(=O)=O)CC2)cc1` [Example 49, N-(2-(1-(4-methoxybenzoyl)piperidin-4-yl)ethyl)sulfamide], the inhibition at 1 µM on ENPP1 [1] (1 µM compound, cGAMP substrate) fell in the range of 25 to 50%. Further, the inhibition constant Ki on ENPP1 [2] (setting [5]) is above 1000 nM.
With `NS(=O)(=O)NCCC1CCN(c2cc(-c3ccc4ncoc4c3)ncn2)CC1` [Example 9, N-(2-(1-(6-(benzo[d]oxazol-6-yl)pyrimidin-4-yl)piperidin-4-yl)ethyl)sulfamide], the inhibition at 1 µM at ENPP1 [1] is below 25%. Moreover, the Ki at ENPP1 [2] (setting [5]) was above 1000 nM.
Turning to `NS(=O)(=O)NCCC1CCN(c2ccnc(Nc3cccnc3)n2)CC1` [Example 12, N-(2-(1-(2-(pyridin-3-ylamino)pyrimidin-4-yl)piperidin-4-yl)ethyl)sulfamide], the inhibition at 1 µM at ENPP1 [1] was below 25%. In addition, the inhibition constant Ki at ENPP1 [2] (setting [5]) was above 1000 nM.
Consider `COc1cc2ncnc(N3CCC(NS(N)(=O)=O)CC3)c2cc1OC` [Example 51, N-(1-(6,7-dimethoxyquinazolin-4-yl)piperidin-4-yl)sulfamide], for which the inhibition at 1 µM at ENPP1 [1] (1 µM compound, cGAMP substrate) was above 75%. Moreover, the inhibition constant (Ki) at ENPP1 [1] (cGAMP substrate, Ki from IC50 by Cheng-Prusoff, read-out: cGAMP: Ki) was in the range of 100 to 1000 nM; on ENPP1 [2] (setting [5]), 100 to 1000 nM.
`COc1cc2ccnc(N3CCC(CCNS(N)(=O)=O)CC3)c2cc1OC` [Example 21, N-{2-[1-(6,7-dimethoxyisoquinolin-1-yl)piperidin-4-yl]ethyl}aminosulfonamide]: on ENPP1 [1], the inhibition at 1 µM lay within 25 to 50%. Moreover, at ENPP1 [2] (setting [5]), the Ki is above 1000 nM.
With `NS(=O)(=O)NCCC1CCN(c2ccnc(-c3cccnc3)n2)CC1` [Example 14, N-(2-(1-(2-(pyridin-3-yl)pyrimidin-4-yl)piperidin-4-yl)ethyl)sulfamide], the inhibition at 1 µM on ENPP1 [1] (1 µM compound, cGAMP substrate) is below 25%. Further, the Ki at ENPP1 [2] (setting [5]) was above 1000 nM.
In the case of `NS(=O)(=O)NCCC1CCN(c2ccnc(NC(=O)c3cccnc3)n2)CC1` [Example 7, N-(4-(4-(2-(sulfamoylamino)ethyl)piperidin-1-yl)pyrimidin-2-yl)nicotinamide], the inhibition at 1 µM at ENPP1 [1] is below 25%. For the same compound, at ENPP1 [2] (setting [5]), the inhibitory constant (Ki) was above 1000 nM.
As for `COc1cc2ncnc(N3CCC4(CCNC4)CC3)c2cc1OC` [Example 274, 8-(6,7-dimethoxyquinazolin-4-yl)-2,8-diazaspiro[4.5]decane], the inhibitory constant (Ki) was above 1000 nM on ENPP1 [3] (setting [6]) and 100 to 1000 nM on ENPP1 [2] (setting [5]). In addition, on ENPP1 [4], the “Substrate Selectivity” value is listed as above 6.4.
With `COc1cc2c(N3CCC(CCNS(N)(=O)=O)CC3)c(C#N)cnc2cn1` [Example 216, N-(2-(1-(3-cyano-6-methoxy-1,7-naphthyridin-4-yl)piperidin-4-yl)ethyl)sulfamide], the values for the inhibition constant Ki on ENPP1 [3] (setting [6]) and on ENPP1 [2] (setting [5]) were above 1000 nM and below 100 nM, respectively. The “Substrate Selectivity” value at ENPP1 [4] is given as above 72.3.
As to `COc1cc2ncnc(N3CCC(CCN)CC3)c2cc1OC` [Example 334, 2-(1-(6,7-dimethoxyquinazolin-4-yl)piperidin-4-yl)ethan-1-amine], the inhibition constant Ki on ENPP1 [3] (setting [6]) is above 1000 nM; at ENPP1 [2] (setting [5]), below 100 nM. Besides, the “Substrate Selectivity” value on ENPP1 [4] was above 414.
For `COc1ccc2c(N3CCc4cc(NS(N)(=O)=O)cc(F)c43)ccnc2c1` [Example 375, N-(7-fluoro-1-(7-methoxyquinolin-4-yl)indolin-5-yl)sulfamide], in that order: below 100 nM, below 100 nM and 25.
For `COc1cc2ncc(F)c(-c3ccc4c(c3)CN(S(N)(=O)=O)CC4)c2cc1OC` [Example 229, 7-(3-fluoro-6,7-dimethoxyquinolin-4-yl)-3,4-dihydroisoquinoline-2(1H)-sulfonamide], in that order: below 100 nM, below 100 nM and 27.2.
The corresponding values for `COc1cc2nccc(Nc3ccc(NS(N)(=O)=O)cc3)c2cc1OC` [Example 134, N-(4-((6,7-dimethoxyquinolin-4-yl)amino)phenyl)sulfamide] are above 1000 nM, below 100 nM and above 69.1.
Regarding `COc1cc2nccc(-c3ccc(CN(C)S(N)(=O)=O)cc3)c2cc1OC` [Example 61, N-(4-(6,7-dimethoxyquinolin-4-yl)benzyl)-N-methylsulfamide], the Ki on ENPP1 [3] (setting [6]) and on ENPP1 [2] (setting [5]) was below 100 nM in each case. Moreover, the “Substrate Selectivity” value at ENPP1 [4] is on record as 23.7.
As for `NS(=O)(=O)N1CCc2ccc(-c3ccnc4cc(F)ccc34)cc2C1` [Example 311, 7-(7-fluoroquinolin-4-yl)-3,4-dihydroisoquinoline-2(1H)-sulfonamide], the Ki on ENPP1 [3] (setting [6]) was above 1000 nM; on ENPP1 [2] (setting [5]) it was below 100 nM. For the same compound, the “Substrate Selectivity” value on ENPP1 [4] is recorded as above 133.
